PubChem BioAssay AID330 (DTP/NCI, 2004)
Values joined by “and” are separate entries in the source; they are usually repeats but may differ in a detail not shown here. Identical values can stand only once. Inconclusive results and toxic doses are left out.

System: P388 leukemia ip, CD2F1 mice, survival T/C
Experiment: NCI In Vivo Anticancer Drug Screen. Data for tumor model P388 Leukemia (intraperitoneal) in CD2F1 (CDF1) mice
Conditions: endpoint: median survival time, higher = longer survival
Method in brief: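 Mice carrying the transplanted tumor received test compound or vehicle. Survival was recorded in each group, and the value is the treated-group measurement divided by that of the vehicle-treated control group.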

[1] = dose: 6.25 mg/kg/injection, schedule: Q01DX009 (ip), vehicle: saline with Tween-80
[2] = dose: 12.5 mg/kg/injection, schedule: Q01DX009 (ip), vehicle: saline with Tween-80
[3] = dose: 25.0 mg/kg/injection, schedule: Q01DX009 (ip), vehicle: saline with Tween-80
[4] = dose: 25.0 mg/kg/injection, schedule: Q04DX003 (ip), vehicle: saline
[5] = dose: 50.0 mg/kg/injection, schedule: Q04DX003 (ip), vehicle: saline
[6] = dose: 100.0 mg/kg/injection, schedule: Q04DX003 (ip), vehicle: saline
[7] = dose: 100.0 mg/kg/injection, schedule: Q01DX009 (ip), vehicle: saline with Tween-80
[8] = dose: 12.5 mg/kg/injection, schedule: Q04DX003 (ip), vehicle: saline
[9] = dose: 6.25 mg/kg/injection, schedule: Q04DX003 (ip), vehicle: saline
[10] = dose: 50.0 mg/kg/injection, schedule: Q01DX009 (ip), vehicle: saline
[11] = dose: 100.0 mg/kg/injection, schedule: Q01DX009 (ip), vehicle: saline
[12] = dose: 200.0 mg/kg/injection, schedule: Q01DX009 (ip), vehicle: saline
[13] = dose: 50.0 mg/kg/injection, schedule: Q01DX009 (ip), vehicle: saline with Tween-80
[14] = dose: 200.0 mg/kg/injection, schedule: Q01DX009 (ip), vehicle: saline with Tween-80
[15] = dose: 50.0 mg/kg/injection, schedule: Q01DX005 (ip), vehicle: saline with Tween-80
[16] = dose: 100.0 mg/kg/injection, schedule: Q01DX005 (ip), vehicle: saline with Tween-80
[17] = dose: 200.0 mg/kg/injection, schedule: Q01DX005 (ip), vehicle: saline with Tween-80

CCCCN(CCCC)CC(O)c1ccc2cc(Cl)cc(Cl)c2n1 (configuration not stated)
T/C [1]: 90 % of control
T/C [2]: 100 % of control
T/C [3]: 100 % of control

Cc1c(Cl)cccc1NC(=O)/C=C/C(=O)O
T/C (dose: 100.0 mg/kg/injection, schedule: Q04DX003 (ip), vehicle: saline with Tween-80): 90 % of control
T/C (dose: 200.0 mg/kg/injection, schedule: Q04DX003 (ip), vehicle: saline with Tween-80): 95 % of control
T/C (dose: 400.0 mg/kg/injection, schedule: Q04DX003 (ip), vehicle: saline with Tween-80): 90 % of control

CCC/C(=N\NC(=S)N1CCN(c2ccccn2)CC1)c1ccccn1
T/C (dose: 6.25 mg/kg/injection, schedule: Q01DX005 (ip), vehicle: saline with Tween-80): 102 % of control and 104 % of control
T/C (dose: 12.5 mg/kg/injection, schedule: Q01DX005 (ip), vehicle: saline with Tween-80): 107 % of control and 110 % of control

c1ccc(-c2cc3ccc4cccnc4c3o2)cc1
T/C (dose: 100.0 mg/kg/injection, schedule: Q04DX002 (ip), vehicle: saline with Tween-80): 91 % of control
T/C (dose: 200.0 mg/kg/injection, schedule: Q04DX002 (ip), vehicle: saline with Tween-80): 87 % of control
T/C (dose: 400.0 mg/kg/injection, schedule: Q04DX002 (ip), vehicle: saline with Tween-80): 103 % of control

Nc1ncnc2c1nc(N)n2C1OC(CO)C(O)C1O (configuration not stated)
T/C (dose: 6.0 mg/kg/injection, schedule: Q01DX005 (ip), vehicle: saline): 122 % of control
T/C (dose: 25.0 mg/kg/injection, schedule: Q01DX005 (ip), vehicle: saline): 119 % of control

CC(=O)N1CCCC1C(=O)O (configuration not stated)
T/C [4]: 102 % of control
T/C [5]: 112 % of control
T/C [6]: 105 % of control and 87 % of control
T/C (dose: 400.0 mg/kg/injection, schedule: Q04DX003 (ip), vehicle: saline): 101 % of control

C[CH2][Sn]([CH2]C)([CH2]C(=O)OC)[CH2]C(=O)OC
T/C (dose: 9.0 mg/kg/injection, schedule: Q03HX015 (ip), vehicle: saline with Tween-80): 153 % of control
T/C [2]: 170 % of control
T/C (dose: 18.0 mg/kg/injection, schedule: Q01DX005 (ip), vehicle: saline with Tween-80): 150 % of control
T/C [7]: 174 % of control

N=C(N)c1ccc(NC(=O)c2cc3ccc(C(=N)N)cc3o2)cc1
T/C [8]: 101 % of control
T/C [4]: 101 % of control
T/C [5]: 102 % of control

CCN1CCC(C2(C(=O)OC)c3ccccc3-c3ccccc32)C1 (configuration not stated)
T/C [9]: 106 % of control
T/C [8]: 108 % of control
T/C [4]: 103 % of control
T/C [6]: 104 % of control

Cn1cccc([N+](=O)[O-])c1=O
T/C (dose: 5.0 mg/kg/injection, schedule: Q01DX009 (ip), vehicle: saline): 105 % of control and 109 % of control
T/C (dose: 10.0 mg/kg/injection, schedule: Q01DX009 (ip), vehicle: saline): 101 % of control and 108 % of control
T/C (dose: 12.5 mg/kg/injection, schedule: Q01DX009 (ip), vehicle: saline): 113 % of control and 114 % of control
T/C (dose: 20.0 mg/kg/injection, schedule: Q01DX009 (ip), vehicle: saline): 102 % of control and 110 % of control
T/C (dose: 25.0 mg/kg/injection, schedule: Q01DX009 (ip), vehicle: saline): 100 % of control and 107 % of control
T/C (dose: 40.0 mg/kg/injection, schedule: Q01DX009 (ip), vehicle: Klucel (hydroxypropylcellulose) (HPC)): 100 % of control
T/C (dose: 40.0 mg/kg/injection, schedule: Q01DX009 (ip), vehicle: saline): 105 % of control
T/C (dose: 60.0 mg/kg/injection, schedule: Q01DX009 (ip), vehicle: Klucel (hydroxypropylcellulose) (HPC)): 104 % of control

Cn1nnnc1NC#N
T/C (dose: 100.0 mg/kg/injection, schedule: Q01DX001 (ip), vehicle: Klucel (hydroxypropylcellulose) (HPC)): 107 % of control
T/C (dose: 200.0 mg/kg/injection, schedule: Q01DX001 (ip), vehicle: Klucel (hydroxypropylcellulose) (HPC)): 113 % of control
T/C (dose: 400.0 mg/kg/injection, schedule: Q01DX001 (ip), vehicle: Klucel (hydroxypropylcellulose) (HPC)): 108 % of control

C/C(=N/N=C(N)N)c1cn[nH]c1C
T/C (dose: 60.0 mg/kg/injection, schedule: Q01DX005 (ip), vehicle: Klucel (hydroxypropylcellulose) (HPC)): 107 % of control
T/C (dose: 120.0 mg/kg/injection, schedule: Q01DX005 (ip), vehicle: Klucel (hydroxypropylcellulose) (HPC)): 100 % of control

CCCCCCCCCCCCCCCC(=O)N(CCCCCCCCCN(CCCN(C)C)C(=O)CCCCCCCCCCCCCCC)CCCN(C)C
T/C (dose: 3.13 mg/kg/injection, schedule: Q01DX009 (ip), vehicle: water): 108 % of control
T/C (dose: 6.25 mg/kg/injection, schedule: Q01DX009 (ip), vehicle: water): 109 % of control
T/C (dose: 12.5 mg/kg/injection, schedule: Q01DX009 (ip), vehicle: water): 105 % of control
T/C (dose: 25.0 mg/kg/injection, schedule: Q01DX009 (ip), vehicle: water): 93 % of control and 96 % of control
T/C (dose: 50.0 mg/kg/injection, schedule: Q01DX009 (ip), vehicle: water): 103 % of control

CN(C)c1ccc(/C=C/c2ccnc3ccccc23)c(F)c1
T/C [10]: 86 % of control
T/C [11]: 92 % of control
T/C [12]: 86 % of control

O=c1[nH]c(=S)[nH]nc1/C=C/C=C/c1ccccc1
T/C (dose: 100.0 mg/kg/injection, schedule: Q01DX001 (ip), vehicle: saline): 96 % of control
T/C (dose: 200.0 mg/kg/injection, schedule: Q01DX001 (ip), vehicle: saline): 97 % of control
T/C (dose: 400.0 mg/kg/injection, schedule: Q01DX001 (ip), vehicle: saline): 105 % of control

O=C(NC(=S)Nc1ncn[nH]1)c1ccc(Cl)c(Cl)c1
T/C [2]: 104 % of control
T/C [3]: 100 % of control
T/C [13]: 95 % of control
T/C [7]: 91 % of control
T/C [14]: 92 % of control

CCN1CCCC(=O)C1
T/C [15]: 96 % of control
T/C [16]: 101 % of control
T/C [17]: 102 % of control

CC(=O)OC(CCC1CO1)OC(C)=O (configuration not stated)
T/C [10]: 100 % of control
T/C [11]: 98 % of control
T/C [12]: 100 % of control

OC1COC(c2ccccc2)OC1C1OC(c2ccccc2)OC2COC(c3ccccc3)OC21 (configuration not stated)
T/C [13]: 107 % of control
T/C [7]: 96 % of control
T/C [14]: 97 % of control

CC1=NN(c2ccc(S(=O)(=O)O)cc2)C(=O)C1N=Nc1ccc(-c2ccc(N=Nc3ccc(O)c(C(=O)O)c3)c(C)c2)cc1C (configuration not stated)
T/C [1]: 100 % of control and 91 % of control
T/C [2]: 99 % of control and 106 % of control and 113 % of control
T/C [3]: 100 % of control and 120 % of control and 91 % of control

Cc1c2c(ccc3ccccc32)c[n+]2ccccc12
T/C (dose: 6.25 mg/kg/injection, schedule: Q04DX003 (ip), vehicle: other): 105 % of control
T/C [9]: 109 % of control
T/C (dose: 12.5 mg/kg/injection, schedule: Q04DX003 (ip), vehicle: other): 105 % of control
T/C [8]: 109 % of control

CCn1c(=O)c2cn[nH]c2n(CC)c1=O
T/C (dose: 50.0 mg/kg/injection, schedule: Q01DX009 (ip), vehicle: Klucel (hydroxypropylcellulose) (HPC)): 108 % of control
T/C (dose: 100.0 mg/kg/injection, schedule: Q01DX009 (ip), vehicle: Klucel (hydroxypropylcellulose) (HPC)): 104 % of control

CCOC(=O)Nc1cc2c(c(N)n1)N=C(c1ccccc1)CN2C
T/C (dose: 12.5 mg/kg/injection, schedule: Q01DX001 (ip), vehicle: saline with Tween-80): 111 % of control
T/C (dose: 25.0 mg/kg/injection, schedule: Q01DX001 (ip), vehicle: saline with Tween-80): 101 % of control
T/C (dose: 50.0 mg/kg/injection, schedule: Q01DX001 (ip), vehicle: saline with Tween-80): 111 % of control and 97 % of control
T/C (dose: 100.0 mg/kg/injection, schedule: Q01DX001 (ip), vehicle: saline with Tween-80): 112 % of control
T/C (dose: 200.0 mg/kg/injection, schedule: Q01DX001 (ip), vehicle: saline with Tween-80): 106 % of control

CCC(=O)N(C)C(C)C(=O)OC1CC(=O)N(C)c2cc(cc(OC)c2Cl)CC(CO)=C/C=C/C(OC)C2(O)CC(OC(=O)N2)C(C)C2OC12C (configuration not stated)
T/C (dose: 50.0 micrograms/kg/injection, schedule: Q01DX009 (ip), vehicle: saline + alcohol): 124 % of control
T/C (dose: 100.0 micrograms/kg/injection, schedule: Q01DX009 (ip), vehicle: saline + alcohol): 158 % of control
T/C (dose: 400.0 micrograms/kg/injection, schedule: Q01DX009 (ip), vehicle: saline + alcohol): 150 % of control and 158 % of control
T/C (dose: 800.0 micrograms/kg/injection, schedule: Q01DX009 (ip), vehicle: saline + alcohol): 155 % of control

O=C1CN(Cc2ccc(Cl)cc2)CC(=O)N2Cc3ccccc3CN12
T/C [15]: 102 % of control
T/C [16]: 104 % of control
T/C [17]: 103 % of control
